Reference: patent US7462459B2, “LAT1 transporters expressed in blood brain barrier cells” (XenoPort, Inc., priority 2004, dated 2008)
Where two headings read alike, the source gives them in different places.

Tests used:
[1] = molecular target: T1, LAT1 (Homo sapiens, UniProt Q01650); settings: cited from earlier work
Target sequence in this assay (Q01650 whole entry, species assumed): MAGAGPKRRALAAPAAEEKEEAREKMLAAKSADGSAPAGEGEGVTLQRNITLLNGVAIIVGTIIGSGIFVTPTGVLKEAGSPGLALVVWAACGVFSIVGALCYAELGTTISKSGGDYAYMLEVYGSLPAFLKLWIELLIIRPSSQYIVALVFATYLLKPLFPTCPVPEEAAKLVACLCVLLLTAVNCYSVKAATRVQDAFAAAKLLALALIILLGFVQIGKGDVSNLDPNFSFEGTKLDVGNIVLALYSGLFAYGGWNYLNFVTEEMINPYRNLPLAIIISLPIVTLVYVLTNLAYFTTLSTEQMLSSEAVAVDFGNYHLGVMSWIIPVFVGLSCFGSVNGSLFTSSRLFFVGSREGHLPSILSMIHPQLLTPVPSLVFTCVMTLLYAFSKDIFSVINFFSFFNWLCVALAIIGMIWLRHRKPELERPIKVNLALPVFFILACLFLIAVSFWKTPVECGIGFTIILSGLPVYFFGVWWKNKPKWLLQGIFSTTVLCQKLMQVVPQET
Target sequence in this assay (P08195 102-630 partner, species assumed): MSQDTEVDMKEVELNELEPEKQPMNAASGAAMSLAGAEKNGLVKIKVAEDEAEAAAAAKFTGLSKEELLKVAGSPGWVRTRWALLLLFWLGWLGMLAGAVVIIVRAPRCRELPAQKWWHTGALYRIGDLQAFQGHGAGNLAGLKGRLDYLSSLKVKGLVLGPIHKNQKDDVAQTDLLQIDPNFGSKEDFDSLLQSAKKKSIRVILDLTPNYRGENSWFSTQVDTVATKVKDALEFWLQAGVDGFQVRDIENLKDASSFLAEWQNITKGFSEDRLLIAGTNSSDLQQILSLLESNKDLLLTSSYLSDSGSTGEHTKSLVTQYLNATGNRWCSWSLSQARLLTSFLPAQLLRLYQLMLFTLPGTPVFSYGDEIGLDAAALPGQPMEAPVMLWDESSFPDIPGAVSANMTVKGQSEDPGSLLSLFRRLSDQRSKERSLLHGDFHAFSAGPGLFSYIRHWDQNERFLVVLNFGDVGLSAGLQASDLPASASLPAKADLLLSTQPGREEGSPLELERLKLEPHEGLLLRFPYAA

[2] = molecular target: T1, LAT1; test: KB cell direct uptake assay (LC-MS-MS); settings: read-out: Km or IC50, Direct Uptake; KB cells; 5 min
[3] = molecular target: T1, LAT1; test: Oocyte direct uptake assay (LC-MS-MS), oocytes expressing hLAT1 and 4F2hc; type: cell-based; design: expressed in transfected cells; host or cells: Xenopus oocytes injected with cRNA
Excerpt: To assess transport function of a specific transporter protein, it can be desirable to clone the cDNA and express the protein in cells that have low endogenous transport activity. Human LAT1 was cloned by PCR, fully sequenced, and subcloned into plasmids that can be used for expression in mammalian cells or Xenopus oocytes. The co-subunit required for LAT1 function, 4F2HC (Genbank accession AB018010), was also cloned and sequenced. Unless otherwise noted, 4F2HC was also co-expressed in each heterologous system described in the example. […] For expression in Xenopus oocytes, in vitro LAT1 and 4F2HC cRNA was prepared and injected into defoliculated oocytes.
To measure directly the uptake of possible substrates, an oocyte uptake assay in which compounds are measured by mass spectroscopy was developed. To illustrate this approach, uptake assays of gabapentin and L-dopa were performed. Oocytes used in this experiment were injected with LAT1 cRNA and incubated at 16-18° C. until maximal transporter expression was reached. Oocytes from the same batch, which were not injected with cRNA, were used in the experiment to serve as a control. […] Following the incubation, the pools of oocytes were washed 4 times with 0.5% BSA ND96 buffer and separated into 2 oocyte subpools containing 4 oocytes each. Subpools were homogenized in 150 μl of ice cold 80% MeOH/H2O, and lysed manually with a P200 pipettor. Lysates were vortexed briefly before being spun in a 4° C. tabletop centrifuge at 13.2 krpm for 15 minutes. Approximately 110 μl of lysate was removed from the eppendorf tubes and placed in a 96-well plate. Lysates were analyzed for gabapentin and L-dopa by liquid chromatography-mass spectroscopy.
Samples were analyzed by LC-MS-MS as follows. […] Analyte fragmentation peaks were integrated using Analyst 1.2 quantitation software, and concentrations were calculated using a calibration curve of signals produced by known concentrations of the compound.
Target sequence in this assay (Q01650 whole entry): as the sequence (Q01650 whole entry, species assumed) above
Target sequence in this assay (as listed by the source partner): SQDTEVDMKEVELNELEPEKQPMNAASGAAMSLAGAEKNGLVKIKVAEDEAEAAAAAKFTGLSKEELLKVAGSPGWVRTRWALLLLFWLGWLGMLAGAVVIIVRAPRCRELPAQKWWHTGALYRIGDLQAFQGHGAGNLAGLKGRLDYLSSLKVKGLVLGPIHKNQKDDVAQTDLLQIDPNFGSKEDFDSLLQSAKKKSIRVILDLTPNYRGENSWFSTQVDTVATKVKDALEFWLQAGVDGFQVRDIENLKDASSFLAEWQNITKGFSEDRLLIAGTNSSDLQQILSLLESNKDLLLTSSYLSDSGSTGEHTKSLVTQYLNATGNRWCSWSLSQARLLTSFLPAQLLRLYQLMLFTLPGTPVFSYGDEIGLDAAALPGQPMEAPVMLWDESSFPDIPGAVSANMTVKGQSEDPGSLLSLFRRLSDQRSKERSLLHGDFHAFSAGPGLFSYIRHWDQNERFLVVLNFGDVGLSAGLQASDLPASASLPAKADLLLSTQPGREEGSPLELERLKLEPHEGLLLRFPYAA

[4] = molecular target: T1, LAT1; settings: Literature; LAT1-expressing oocytes; cited from earlier work
Target sequence in this assay (Q01650 whole entry, species assumed): as the sequence (Q01650 whole entry, species assumed) above
Target sequence in this assay (P08195 102-630 partner, species assumed): as the sequence (P08195 102-630 partner, species assumed) above

[5] = molecular target: T2, hLAT1 (Homo sapiens, UniProt P08195+Q01650); test: LAT1 direct uptake assay in HEK-TREx-LAT1-4F2hc cells (LC-MS-MS); type: cell-based; settings: read-out: Km or IC50, Direct Uptake
T2 construct: expressed in transfected cells
Experimental: Four concentrations (bracketing the affinity as measured by competition assays) per compound were routinely tested.
Typically, four concentrations bracketing the IC50 were tested. The highest test concentration for each compound was made in an eppendorf tube and diluted into HBSS. The samples were robustly vortexed and centrifuged for 10 minutes at 13,200 rpm to spin down any precipitate. […] Three additional 2-fold dilutions were made in the subsequent rows (B-D or […]) in HBSS.
Alternatively, cells were washed manually with equivalent volumes using a multichannel pipettor.
The plate was incubated at room temperature for 10 minutes.
120 μl of the cell extract was removed from each well and transferred to a fresh 96-well v-bottom polypropylene plate. […] 10 μl of the 50 μM propranolol solution was added to each well of a fresh 96-well plate (a plate amenable for sampling in the LC-MS-MS).

[6] = molecular target: T3, LAT1 transporter (Homo sapiens, UniProt Q01650); test: KB cell competition assay with 14C-gabapentin; type: cell-based
T3 construct: KB cells endogenously expressing LAT1; endogenous in cells; host or cells: KB cells
Excerpt: To increase the throughput of LAT1 compound screening, a mammalian cell assay was developed. Because LAT1 mRNA is expressed at detectable levels in many cancer cell lines, over 20 human cell lines were screened for LAT1 expression using quantitative PCR. Cell lines included A498, A549, ASPC, CALU, CAPAN, DLD, DU145, H69AR, HCT8, HEK, HELA, HEPG2, HL60, JAR, JUR, KB, LOVO, MCF7, PANC1, PC3, and SW48.
To determine whether a compound interacts with the LAT1 transporter, a competition-binding assay was developed. The assay measures how different concentrations of a test compound block the uptake of a radiolabeled substrates such as ^14C-L-dopa or ^14C-gabapentin. The half-maximal inhibitory concentration (IC50) for inhibition of transport of a substrate by a test compound is an indication of the affinity of the test compound for the LAT1 transporter. Competition binding studies were performed as follows. KB cells were plated in 96-well plates at 100,000 cells/well and incubated for 24 hours at 37° C. Radiolabeled ^14C-gabapentin (˜50,000 cpm/well) was added to each well in the presence and absence of various concentrations of test compound in duplicate or triplicate. Plates were incubated at room temperature for 20 min. Excess radiolabeled substrate was removed and cells were washed three times with a 96-well plate washer with cold assay buffer. Scintillation fluid was added to each well, the plates were sealed and counted in a 96-well plate-based scintillation counter. Data were graphed and analyzed using non-linear regression analysis with Prism Software (GraphPad, Inc., San Diego, Calif.).

[7] = molecular target: T2, hLAT1; test: LAT1 competition uptake assay in HEK-TREx-LAT1-4F2hc cells with 3H-gabapentin; type: cell-based
Experimental: The plates were incubated at room temperature for 15 minutes.

[8] = molecular target: T1, LAT1; test: Radiolabel uptake into Xenopus oocytes expressing LAT1 and 4F2HC; type: cell-based; design: expressed in transfected cells; host or cells: Xenopus oocytes injected with cRNA; settings: FIG. 2
[9] = molecular target: PgP (Homo sapiens, UniProt P08183); test: Cellular transwell monolayer efflux assay, MDCK cells with TREx-PgP
[10] = own data, read-out: Km or IC50, Direct Uptake
[11] = KB cells, read-out: Km or IC50, Competition (14C-GP)
[12] = 2.5 nM 3H-vinblastine, 250 μM verapamil

T3 sequence (Q01650 whole entry): as the sequence (Q01650 whole entry, species assumed) above
T3 sequence (P08195 102-630 partner): as the sequence (P08195 102-630 partner, species assumed) above
T2 sequence (Q01650+P08195 fused): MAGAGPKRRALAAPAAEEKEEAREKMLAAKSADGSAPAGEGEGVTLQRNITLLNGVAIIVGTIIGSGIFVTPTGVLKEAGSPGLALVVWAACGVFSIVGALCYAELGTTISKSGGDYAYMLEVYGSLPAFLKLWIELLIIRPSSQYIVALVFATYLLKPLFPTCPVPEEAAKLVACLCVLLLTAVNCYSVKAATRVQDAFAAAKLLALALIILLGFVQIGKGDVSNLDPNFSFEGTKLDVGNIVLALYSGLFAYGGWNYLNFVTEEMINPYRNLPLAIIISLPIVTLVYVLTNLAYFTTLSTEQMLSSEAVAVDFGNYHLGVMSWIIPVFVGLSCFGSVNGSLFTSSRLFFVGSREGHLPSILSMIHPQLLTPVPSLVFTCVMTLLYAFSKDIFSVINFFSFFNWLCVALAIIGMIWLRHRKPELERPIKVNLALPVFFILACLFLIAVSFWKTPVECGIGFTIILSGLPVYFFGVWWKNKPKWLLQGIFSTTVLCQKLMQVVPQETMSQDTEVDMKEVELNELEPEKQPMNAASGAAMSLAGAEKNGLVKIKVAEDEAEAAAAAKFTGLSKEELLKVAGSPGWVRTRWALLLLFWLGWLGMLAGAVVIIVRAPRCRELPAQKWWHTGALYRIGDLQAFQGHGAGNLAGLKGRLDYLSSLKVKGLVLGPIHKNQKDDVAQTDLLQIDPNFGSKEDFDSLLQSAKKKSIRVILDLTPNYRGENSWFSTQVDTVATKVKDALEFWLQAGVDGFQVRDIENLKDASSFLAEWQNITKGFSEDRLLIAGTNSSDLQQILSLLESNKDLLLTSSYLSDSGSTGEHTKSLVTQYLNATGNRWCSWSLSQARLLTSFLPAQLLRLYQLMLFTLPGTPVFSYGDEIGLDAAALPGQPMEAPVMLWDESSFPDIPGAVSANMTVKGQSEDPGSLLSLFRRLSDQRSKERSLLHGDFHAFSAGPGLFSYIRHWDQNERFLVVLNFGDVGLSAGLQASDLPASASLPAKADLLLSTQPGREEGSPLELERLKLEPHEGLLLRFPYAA
PgP, sequence (P08183 whole entry): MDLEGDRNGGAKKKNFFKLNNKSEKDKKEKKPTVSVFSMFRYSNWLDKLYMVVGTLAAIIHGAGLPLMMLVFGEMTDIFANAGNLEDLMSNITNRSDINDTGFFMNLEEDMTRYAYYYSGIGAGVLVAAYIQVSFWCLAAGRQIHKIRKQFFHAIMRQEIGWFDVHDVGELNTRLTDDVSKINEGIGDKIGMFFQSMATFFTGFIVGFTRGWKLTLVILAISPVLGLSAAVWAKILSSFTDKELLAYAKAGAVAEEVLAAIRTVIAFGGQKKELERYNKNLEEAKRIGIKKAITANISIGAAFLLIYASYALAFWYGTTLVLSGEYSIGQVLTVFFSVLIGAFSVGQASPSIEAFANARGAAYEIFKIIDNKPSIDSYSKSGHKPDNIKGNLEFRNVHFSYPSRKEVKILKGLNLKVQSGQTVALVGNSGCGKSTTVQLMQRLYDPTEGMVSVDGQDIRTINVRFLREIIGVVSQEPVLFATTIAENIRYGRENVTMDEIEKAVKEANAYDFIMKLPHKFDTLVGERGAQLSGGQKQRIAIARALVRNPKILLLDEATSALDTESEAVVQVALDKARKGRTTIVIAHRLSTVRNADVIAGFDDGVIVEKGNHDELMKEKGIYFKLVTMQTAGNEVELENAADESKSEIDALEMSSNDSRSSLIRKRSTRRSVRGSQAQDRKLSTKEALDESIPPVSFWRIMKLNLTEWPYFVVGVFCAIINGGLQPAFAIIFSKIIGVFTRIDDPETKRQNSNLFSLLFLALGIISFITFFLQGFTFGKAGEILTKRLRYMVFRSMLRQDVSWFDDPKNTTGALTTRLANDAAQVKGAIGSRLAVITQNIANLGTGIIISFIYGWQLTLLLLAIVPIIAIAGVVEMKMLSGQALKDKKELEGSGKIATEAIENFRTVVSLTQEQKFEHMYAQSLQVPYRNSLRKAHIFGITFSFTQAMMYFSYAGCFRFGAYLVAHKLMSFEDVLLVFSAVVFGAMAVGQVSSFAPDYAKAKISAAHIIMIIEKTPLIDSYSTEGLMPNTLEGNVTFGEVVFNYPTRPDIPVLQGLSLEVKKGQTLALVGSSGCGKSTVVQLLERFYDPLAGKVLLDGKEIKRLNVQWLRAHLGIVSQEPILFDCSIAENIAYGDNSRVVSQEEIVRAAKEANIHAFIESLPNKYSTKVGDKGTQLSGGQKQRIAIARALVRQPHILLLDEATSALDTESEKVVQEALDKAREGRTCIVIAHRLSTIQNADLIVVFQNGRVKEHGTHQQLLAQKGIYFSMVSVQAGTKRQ

**Q.** With NCC(CC(=O)O)c1ccc(Cl)cc1 (stereo not shown) [Baclofen] as the compound, how does the “Reported Affinity for LAT1” value [1] read?
**A.** 0.25 mM

**Q.** For NC1(C(=O)O)CC2CCC1C2 (stereo not shown) [Bicyclohexane amino acid], which “Reported Affinity for LAT1” value [1] is on record?
**A.** 0.18 mM

**Q.** What does the source list for NCC1(CC(=O)O)CCCCC1 [Gabapentin]?
**A.** Km [2]: 160 µM; Km ([3]; read-out: Km or IC50, Direct Uptake, own data): 140 µM; Km or IC50, Radiolabel Uptake or Competition [4]: 340 µM; Km [5]: 500 µM; Reported Affinity for LAT1 [1]: 0.15 mM; IC50 [6]: 210 µM; IC50 [7]: 400 µM

**Q.** Which results are given for N[C@@H](Cc1ccc(O)c(O)c1)C(=O)O [L-dopa]?
**A.** Km [3, 10]: 66 µM; 3H-L-dopa uptake into oocytes expressing LAT1 and 4F2HC versus noninjected controls [8]: higher levels; IC50 [6, 11]: 190 µM

**Q.** Which “Reported Affinity for LAT1” value [1] does the source give for CC(C)C[C@H](N)C(=O)O [Leucine] here?
**A.** 0.22 mM

**Q.** With CSCC[C@H](N)C(=O)O [Methionine] as the compound, how does the “Reported Affinity for LAT1” value [1] read?
**A.** 0.25 mM

**Q.** Which results are given for N[C@@H](Cc1ccccc1)C(=O)O [Phenylalanine]?
**A.** Km [2]: 14.5 µM; Km [3, 10]: 25 µM; Km or IC50, Radiolabel Uptake or Competition [4]: 12.5 to 14.2 µM; Km [5]: 140 µM; Reported Affinity for LAT1 [1]: 0.025 mM; IC50 [6, 11]: 100 µM; IC50 ([7]; HEK-LAT1 cells, read-out: Km or IC50, Competition (3H-GP)): 160 µM

**Q.** For N[C@@H](Cc1c[nH]c2ccccc12)C(=O)O [Tryptophan], which “Reported Affinity for LAT1” value [1] is on record?
**A.** 0.35 mM

**Q.** Which results are given for CC[C@]1(O)C[C@@H]2CN(CCc3c([nH]c4ccccc34)[C@@](C(=O)OC)(c3cc4c(cc3OC)N(C)[C@H]3[C@@](O)(C(=O)OC)[C@H](OC(C)=O)[C@]5(CC)C=CCN6CC[C@]43[C@@H]65)C2)C1 [vinblastine]?
**A.** PgP substrate status [9]: is a substrate of PgP; Apical to basolateral transport in the presence of verapamil [9, 12]: strongly increased; Basolateral to apical transport in the presence of verapamil [9, 12]: strongly decreased
